The values that follow come from publication PMC5343058 (The Korean Journal of Physiology & Pharmacology : Official …, 2017).

In this test the target is T1, hSlo3+hLRRC52 (Homo sapiens, UniProt A8MYU2).
T1 sequence (A8MYU2 1-1149): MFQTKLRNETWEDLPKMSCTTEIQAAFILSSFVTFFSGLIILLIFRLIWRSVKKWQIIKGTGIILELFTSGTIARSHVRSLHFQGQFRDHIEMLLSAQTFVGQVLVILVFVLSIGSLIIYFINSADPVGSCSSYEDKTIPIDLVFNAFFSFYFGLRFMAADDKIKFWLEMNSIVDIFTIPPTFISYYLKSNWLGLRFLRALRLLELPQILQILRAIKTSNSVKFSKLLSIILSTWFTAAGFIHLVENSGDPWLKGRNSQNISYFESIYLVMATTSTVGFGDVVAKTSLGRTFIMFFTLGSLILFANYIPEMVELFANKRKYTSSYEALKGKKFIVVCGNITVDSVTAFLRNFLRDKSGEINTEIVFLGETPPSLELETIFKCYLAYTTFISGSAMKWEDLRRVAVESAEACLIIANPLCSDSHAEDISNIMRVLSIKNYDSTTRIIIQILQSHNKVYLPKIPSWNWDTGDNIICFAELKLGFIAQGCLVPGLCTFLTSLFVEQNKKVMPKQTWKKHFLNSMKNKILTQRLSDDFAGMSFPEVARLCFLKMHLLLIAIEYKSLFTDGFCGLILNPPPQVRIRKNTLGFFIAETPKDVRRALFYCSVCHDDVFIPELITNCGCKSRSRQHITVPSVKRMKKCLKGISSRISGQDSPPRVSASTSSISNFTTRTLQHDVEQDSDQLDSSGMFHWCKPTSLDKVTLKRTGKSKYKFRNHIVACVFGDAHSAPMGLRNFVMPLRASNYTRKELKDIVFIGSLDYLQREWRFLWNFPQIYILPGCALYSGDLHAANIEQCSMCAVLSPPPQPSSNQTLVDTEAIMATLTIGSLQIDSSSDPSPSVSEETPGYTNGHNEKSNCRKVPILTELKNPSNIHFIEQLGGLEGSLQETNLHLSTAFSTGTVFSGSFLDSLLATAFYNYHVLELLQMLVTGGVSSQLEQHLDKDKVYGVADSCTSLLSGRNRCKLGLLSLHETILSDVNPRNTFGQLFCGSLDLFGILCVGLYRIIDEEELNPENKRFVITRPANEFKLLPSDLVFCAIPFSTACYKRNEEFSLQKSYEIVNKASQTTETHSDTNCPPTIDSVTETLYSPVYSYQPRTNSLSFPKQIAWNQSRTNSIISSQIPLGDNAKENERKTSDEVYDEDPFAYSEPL
T1 sequence (Q8N7C0 24-313 partner): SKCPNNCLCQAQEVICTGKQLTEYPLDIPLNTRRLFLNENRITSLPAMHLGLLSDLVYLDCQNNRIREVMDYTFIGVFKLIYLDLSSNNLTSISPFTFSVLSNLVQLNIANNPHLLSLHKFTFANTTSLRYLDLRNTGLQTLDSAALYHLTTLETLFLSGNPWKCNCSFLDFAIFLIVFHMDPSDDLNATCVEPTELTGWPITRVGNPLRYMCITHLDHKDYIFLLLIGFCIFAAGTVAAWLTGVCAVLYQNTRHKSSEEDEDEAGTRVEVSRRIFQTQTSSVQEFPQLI
Kind of test: whole-cell patch clamp, HEK293, voltage ramp. It is filed as cell-based. To be noted: HEK293, read-out: % inhibition at 20 mM. Background: Patch clamp records ionic current or voltage across a cell membrane.

Molecules are shown by their SMILES.

By inhibition is commonly meant the percentage by which the read-out fell short of the control. On to `CC[N+](CC)(CC)CC` [TEA], for which the inhibition at 20000 µM worked out at 41 ± 5.19%.
